Assay results as given in paper PMC9225785, “Design, synthesis, and biological evaluation of a novel series of 2-(2,6-dioxopiperidin-3-yl)isoquinoline-1,3(2H,4H)-dione derivatives as cereblon modulators” (Journal of Enzyme Inhibition and Medicinal Chemistry, 2022).
Read-outs that look alike come from different tables or passages of the source.

Assays:
TNF-α = TNF-α ELISA assay in LPS stimulated PBMC; format: cell-based, human; details: read-out: IC50 (μM ± SD) TNF-α
Method: Previous studies have reported IMiDs stimulate immunomodulatory activity main through the TNF-α inhibition[9]^,[10]. In this test, the effect of the synthesised compounds on TNF-α in LPS stimulated human peripheral blood mononuclear cell (PBMC) was evaluated (Table 1). The SAR of TNF-α inhibition was similar to the antiproliferative activity. […]
PBMC (4 × 10^5 cells) were incubated in the 96-well culture plate and stimulated by 2 µg/mL LPS. The level of TNF-α was checked by standard ELISA (R&D Systems, Minneapolis, MN). Analysis was performed by following the manufacture’s procedure for each ELISA kit. The test samples were assessed in triplicate and absorbance was taken on a Microplate Reader (ELx-800, BioTek Instruments, Winooski, VT) at 450 nm. The IC50 value for each compound was calculated by comparison with standard curves with purified recombinant TNF-α using GraphPad Prism 5.0 software (San Diego, CA).

PBMC toxicity by CCK8 = format: cell-based, human; details: human, PBMCs isolated from healthy donors, CCK-8, 20.0 µM, relative to control cells; read-out: PBMC cell viability (%)
Method: (§1) And same time, the toxicity of the compounds on the normal human cell line PBMC was also tested by CCK8.
(§2) The NCI-H929 cells were cultured in RPMI-1640 media supplemented with 10% FBS, 100 U/mL penicillin–100 µg/mL streptomycin, and 0.05 mM 2-mercaptoethanol. The U2932 cells were cultured in RPMI-1640 media supplemented with 10% FBS and 100 U/mL penicillin–100 µg/mL streptomycin. The PBMCs were isolated from healthy donors.
(§3) For the cell proliferation experiments, 1.0 × 10^5 cells were first seeded in the 96-well culture plate and incubated overnight. Compounds tested were serially diluted in the corresponding media and then added to the well of 96-well plate in a final volume of 100 µL and then the cells were incubated for 72 h at 37 °C. Finally, 10 µL of CCK-8 was added to each well for 1–4 h, and the absorbance values were read at 450 nm in a Microplate Reader (ELx-800, BioTek Instruments, Winooski, VT). The IC50 value for each compound was calculated at the basis of the number of viable cells using GraphPad Prism 5.0 software (San Diego, CA).

U2932 cells = assay: CCK8 antiproliferative assay, U2932; details: Homo sapiens, U2932, 72 h, read-out: IC50 (μM ± SD) U2932
NCI-H929 cells [1] = assay: CCK8 antiproliferative assay, NCI-H929; details: Homo sapiens, NCI-H929, 72 h, read-out: IC50 (μM ± SD) NCI-H929
PBMC = PBMC toxicity by CCK8; format: cell-based, human
Method: as §1, §2, §3

[2] = molecular target: T1, CRBN (His-tagged CRBN-DDB1 complex) (Homo sapiens, UniProt Q96SW2); assay: TR-FRET CRBN binding assay (displacement of Cy5-labeled thalidomide)
T1 construct: purchased Abcam ab235611
T1 sequence (Q96SW2 whole entry): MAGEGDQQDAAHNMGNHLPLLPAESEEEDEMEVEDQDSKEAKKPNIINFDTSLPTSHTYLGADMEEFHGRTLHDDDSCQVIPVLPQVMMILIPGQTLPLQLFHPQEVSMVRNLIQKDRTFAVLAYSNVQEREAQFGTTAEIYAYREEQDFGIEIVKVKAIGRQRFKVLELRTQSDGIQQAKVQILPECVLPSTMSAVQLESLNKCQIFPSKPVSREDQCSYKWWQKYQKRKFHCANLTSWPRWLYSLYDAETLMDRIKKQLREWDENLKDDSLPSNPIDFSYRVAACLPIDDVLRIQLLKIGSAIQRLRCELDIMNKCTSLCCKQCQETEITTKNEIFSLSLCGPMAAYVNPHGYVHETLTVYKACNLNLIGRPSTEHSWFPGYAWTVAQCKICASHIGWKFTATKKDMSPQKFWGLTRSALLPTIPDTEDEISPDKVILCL
T1 sequence (Q16531 whole entry partner): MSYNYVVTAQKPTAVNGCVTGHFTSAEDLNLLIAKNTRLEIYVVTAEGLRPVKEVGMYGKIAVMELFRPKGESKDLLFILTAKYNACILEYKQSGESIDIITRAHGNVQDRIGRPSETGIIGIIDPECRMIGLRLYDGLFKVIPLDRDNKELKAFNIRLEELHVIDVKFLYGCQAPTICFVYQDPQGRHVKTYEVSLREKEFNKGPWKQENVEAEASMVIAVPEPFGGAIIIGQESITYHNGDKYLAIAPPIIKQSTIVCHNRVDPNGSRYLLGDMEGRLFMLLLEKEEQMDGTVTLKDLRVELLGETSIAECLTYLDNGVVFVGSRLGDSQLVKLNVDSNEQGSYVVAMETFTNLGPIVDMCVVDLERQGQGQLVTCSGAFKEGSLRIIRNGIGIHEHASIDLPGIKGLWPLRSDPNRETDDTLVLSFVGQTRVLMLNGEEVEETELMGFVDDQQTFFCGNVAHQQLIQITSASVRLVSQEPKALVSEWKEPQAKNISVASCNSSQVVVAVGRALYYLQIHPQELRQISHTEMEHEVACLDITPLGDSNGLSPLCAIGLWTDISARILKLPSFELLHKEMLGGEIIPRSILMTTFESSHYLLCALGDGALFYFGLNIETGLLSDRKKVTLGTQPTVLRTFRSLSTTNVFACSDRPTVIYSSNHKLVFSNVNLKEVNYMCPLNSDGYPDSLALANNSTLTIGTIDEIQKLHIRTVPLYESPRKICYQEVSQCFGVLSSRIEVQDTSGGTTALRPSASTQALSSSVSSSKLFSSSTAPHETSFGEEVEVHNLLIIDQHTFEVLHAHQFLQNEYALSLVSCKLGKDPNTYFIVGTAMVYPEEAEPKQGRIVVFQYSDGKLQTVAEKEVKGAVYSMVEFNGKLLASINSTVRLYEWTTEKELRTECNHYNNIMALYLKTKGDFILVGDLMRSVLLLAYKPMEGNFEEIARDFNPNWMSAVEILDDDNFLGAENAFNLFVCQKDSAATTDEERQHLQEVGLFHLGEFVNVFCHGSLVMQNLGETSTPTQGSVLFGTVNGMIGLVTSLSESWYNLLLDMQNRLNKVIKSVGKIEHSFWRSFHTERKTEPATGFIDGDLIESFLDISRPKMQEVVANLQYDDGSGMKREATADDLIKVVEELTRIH
Method: His-tagged CRBN-DDB1 complex (Abcam, Cambridge, UK, catalogue no. ab235611) 60 nM was mixed with Eu-anti-His Tag antibody 3 nM (Thermo Fisher, Waltham, MA, catalogue no. PV5596) in a final buffer containing 20 mM HEPES pH 7.0, 150 mM NaCl, and 0.005% Tween-20. The solution was then mixed with Cy5-labeled thalidomide 10 nM and various concentrations of compounds, and then was incubated at room temperature for 1 h. FRET signals were measured on an EnVision plate reader by exciting at 340 nm and recording emission at both 615 nm (no FRET control) and 665 nm (FRET signals) with a 60 µs delay. […] Quantitative loss of FRET efficiency as a function of compound concentrations was fitted by GraphPad Prism 5.0 (San Diego, CA) and calculated the IC50.

NCI-H929 cells [3] = assay: Annexin V-FITC/PI apoptosis assay; format: cell-based; details: for B1: necrotic cells / B2: late apoptosis / B3: live cells / B4: early apoptosis: 72 h; for apoptotic events: 72 h (early + late apoptosis)
Method: The IMiDs were reported to induce apoptosis through activation of caspase 8 in MM cells. Accordingly, the ability of the selected compound 10a to induce apoptosis in NCI-H929 cells was investigated using annexin V fluorescein isothiocyanate (FITC)/propidium iodide (PI) staining assay.
(§4) Flow cytometry was used to analyse effects of the compounds tested on cell cycle (PI staining) and apoptosis (Annexin V-FITC and PI staining). Stained cells were analysed on a Flow Cytometer (BD Biosciences, Franklin Lakes, NJ), and the data were analysed using the Cell Quest software.

NCI-H929 cells [4] = assay: Cell cycle analysis (PI staining, flow cytometry); format: cell-based; details: 48 h; for cell cycle arrest: NCI-H929, 0.5-5.0 µM
Method: The NCI-H929 cells were treated with each of the compounds at 0, 0.5, 1.0, and 5.0 µM for 48 h. Following this treatment, the PI-stained cells were analysed and the results are outlined in Figure 5.
as §4

IKZF1 = molecular target: T2, IKZF1 (Homo sapiens, UniProt Q13422+Q96SW2); assay: Immunoblot analysis of IKZF1 degradation in NCI-H929 cells; format: cell-based; details: for IKZF1 degradation: 72 h, immunoblot
T2 construct: endogenous in cells; host or cells: NCI-H929
T2 sequence (Q13422 whole entry): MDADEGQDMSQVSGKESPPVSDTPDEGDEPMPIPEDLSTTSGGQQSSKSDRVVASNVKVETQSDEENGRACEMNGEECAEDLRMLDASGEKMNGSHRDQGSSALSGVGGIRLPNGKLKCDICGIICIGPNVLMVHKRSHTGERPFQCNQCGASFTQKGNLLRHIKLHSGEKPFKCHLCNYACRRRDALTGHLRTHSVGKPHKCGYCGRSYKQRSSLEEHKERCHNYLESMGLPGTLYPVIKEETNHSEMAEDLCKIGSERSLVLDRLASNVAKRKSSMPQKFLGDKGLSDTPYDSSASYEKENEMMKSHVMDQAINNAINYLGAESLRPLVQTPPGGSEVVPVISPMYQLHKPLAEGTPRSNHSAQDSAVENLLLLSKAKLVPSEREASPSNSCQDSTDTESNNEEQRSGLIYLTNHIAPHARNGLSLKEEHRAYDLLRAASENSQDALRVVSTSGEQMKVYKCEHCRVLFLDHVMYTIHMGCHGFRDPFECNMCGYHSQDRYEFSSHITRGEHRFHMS
T2 sequence (Q96SW2 whole entry): as the sequence (Q96SW2 whole entry) above
T2 sequence (Q16531 whole entry partner): as the sequence (Q16531 whole entry partner) above
Method: (§5) Subsequent proteasome degradation of these transcription factors kills MM cells. Accordingly, we used the immunoblot assay to measure the IKZF1 and IKZF3 proteins degradation in the current study.
(§6) For immunoblot analysis, NCI-H929 cells were treated with the tested compounds at the indicated concentrations for various times, collected, and lysed in RIPA buffer in the presence of protease inhibitors on ice for 30 min. The protein from each sample was quantitated using a BCA protein assay kit, and was separated by SDS-PAGE and then transferred onto the PVDF membrane. The membranes were probed with specific primary antibodies at 4 °C overnight, followed by incubation with IRDye®680 goat anti-mouse secondary antibodies. The signals were acquired using the Odyssey Infrared Imaging System (LI-COR, Lincoln, NE).

IKZF3 = molecular target: T3, IKZF3 (Homo sapiens, UniProt Q96SW2+Q9UKT9); assay: Immunoblot analysis of IKZF3 degradation in NCI-H929 cells; format: cell-based; details: for IKZF3 degradation: 72 h, immunoblot
T3 construct: endogenous in cells; host or cells: NCI-H929
T3 sequence (Q9UKT9 whole entry): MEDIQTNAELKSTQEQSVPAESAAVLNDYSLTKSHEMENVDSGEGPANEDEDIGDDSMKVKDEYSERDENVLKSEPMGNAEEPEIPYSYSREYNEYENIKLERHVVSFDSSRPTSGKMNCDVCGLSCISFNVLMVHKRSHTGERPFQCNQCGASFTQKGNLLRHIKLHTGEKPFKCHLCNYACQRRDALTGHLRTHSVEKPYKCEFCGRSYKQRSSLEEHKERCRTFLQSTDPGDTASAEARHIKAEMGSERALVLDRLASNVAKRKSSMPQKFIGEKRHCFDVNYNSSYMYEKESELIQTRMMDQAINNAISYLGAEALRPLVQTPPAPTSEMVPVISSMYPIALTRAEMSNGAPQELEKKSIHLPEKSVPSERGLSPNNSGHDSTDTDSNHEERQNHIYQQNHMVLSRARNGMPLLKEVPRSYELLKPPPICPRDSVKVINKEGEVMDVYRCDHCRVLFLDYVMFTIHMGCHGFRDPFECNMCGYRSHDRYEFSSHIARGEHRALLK
T3 sequence (Q96SW2 whole entry): as the sequence (Q96SW2 whole entry) above
T3 sequence (Q16531 whole entry partner): as the sequence (Q16531 whole entry partner) above
Method: as §5, §6

[5] = TNF-α level in LPS stimulated human PBMC, ELISA
[6] = NCI-H929, indicated concentrations
[7] = NCI-H929, 100 nM bortezomib in combination with compound 10a (10 µM)

| Compound | IC50 (TNF-α; [5]) [µM] | IC50 (NCI-H929 cells [1]) [µM] | viability at 72 h, 20 µM (PBMC toxicity by CCK8) [%] | IC50 (U2932 cells) [µM] | other results |
| --- | --- | --- | --- | --- | --- |
| COc1ccc2c(c1)C(=O)N(C1CCC(=O)NC1=O)C(=O)C2 (stereo not shown) [Compound 3b, 2-(2,6-Dioxopiperidin-3-yl)-7-methoxyisoquinoline-1,3(2H,4H)-dione] | 43.8 ± 1.88 | 28.2 ± 0.92 | 98 | 36.4 ± 1.22 |  |
| O=C1CCC(N2C(=O)Cc3cccc([N+](=O)[O-])c3C2=O)C(=O)N1 (stereo not shown) [Compound 9a, 2-(2,6-dioxopiperidin-3-yl)-8-nitroisoquinoline-1,3(2H,4H)-dione] | 5.48 ± 1.04 | 9.26 ± 0.56 | 94 | 12.2 ± 0.58 |  |
| Nc1cccc2c1C(=O)N(C1CCC(=O)NC1=O)C(=O)C2 (stereo not shown) [Compound 10a, 8-amino-2-(2,6-dioxopiperidin-3-yl)isoquinoline-1,3(2H,4H)-dione] | 0.76 ± 0.08 | 2.25 ± 0.09 | 94 | 5.86 ± 0.12 | toxicity to normal human cell line PBMC (PBMC; CCK8, 20 µM): nearly no toxicity; PBMC cell viability (%) (PBMC; CCK-8, 20.0 µM, relative to control cells, 20 µM): 99%; IC50 [2]: 4.83 µM; B1: necrotic cells (NCI-H929 cells [3]; NCI-H929, 1 μM): 0.1%; B2: late apoptosis (NCI-H929 cells [3]; NCI-H929, 1 μM): 15.6%; B3: live cells (NCI-H929 cells [3]; NCI-H929, 1 μM): 70.4%; B4: early apoptosis (NCI-H929 cells [3]; NCI-H929, 1 μM): 13.9%; apoptotic events (NCI-H929 cells [3]; NCI-H929, 1 µM): 29.5%; B1: necrotic cells (NCI-H929 cells [3]; NCI-H929, 5 μM): 0.2%; B2: late apoptosis (NCI-H929 cells [3]; NCI-H929, 5 μM): 21.3%; B3: live cells (NCI-H929 cells [3]; NCI-H929, 5 μM): 65.1%; B4: early apoptosis (NCI-H929 cells [3]; NCI-H929, 5 μM): 13.3%; apoptotic events (NCI-H929 cells [3]; NCI-H929, 5 µM): 34.6%; cells in G0/G1 cell cycle (NCI-H929 cells [4]; NCI-H929, 5.0 µM): 42.9%; cell cycle arrest (NCI-H929 cells [4]): induce G0/G1 cell cycle arrest; IKZF1 degradation (IKZF1; NCI-H929, 10 µM): completely degrade; IKZF1 degradation (IKZF1; [6]): induced the degradation; IKZF3 degradation (IKZF3; NCI-H929, 10 µM): completely degrade; IKZF3 degradation (IKZF3; [6]): induced the degradation |
| Nc1ccc2c(c1)C(=O)N(C1CCC(=O)NC1=O)C(=O)C2 (stereo not shown) [Compound 10b, 7-Amino-2-(2,6-dioxopiperidin-3-yl)isoquinoline-1,3(2H,4H)-dione] | 21.3 ± 1.26 | 16.3 ± 0.56 | 98 | 20.6 ± 0.82 |  |
| CC1(C)C(=O)N(C2CCC(=O)NC2=O)C(=O)c2c(N)cccc21 (stereo not shown) [Compound 12a, 8-Amino-2–(2,6-dioxopiperidin-3-yl)-4,4-dimethylisoquinoline-1,3(2H,4H)-dione] | > 50 | > 50 | 100 | > 50 |  |
| Nc1cccc2c1CN(C1CCC(=O)NC1=O)C2=O (stereo not shown) [Lenalidomide, reference compound] |  | 1.12 ± 0.06 | 86 | 3.24 ± 0.11 | IC50 (TNF-α; Homo sapiens, PBMC): 0.13 ± 0.02 µM; B1: necrotic cells (NCI-H929 cells [3]; NCI-H929, 1 μM): 0.2%; B2: late apoptosis (NCI-H929 cells [3]; NCI-H929, 1 μM): 18.1%; B3: live cells (NCI-H929 cells [3]; NCI-H929, 1 μM): 68.6%; B4: early apoptosis (NCI-H929 cells [3]; NCI-H929, 1 μM): 13.1%; apoptotic events (NCI-H929 cells [3]; NCI-H929, 1 µM): 31.2%; B1: necrotic cells (NCI-H929 cells [3]; NCI-H929, 5 μM): 0.1%; B2: late apoptosis (NCI-H929 cells [3]; NCI-H929, 5 μM): 20.8%; B3: live cells (NCI-H929 cells [3]; NCI-H929, 5 μM): 56.0%; B4: early apoptosis (NCI-H929 cells [3]; NCI-H929, 5 μM): 23.1%; apoptotic events (NCI-H929 cells [3]; NCI-H929, 5 µM): 43.9%; cell cycle arrest (NCI-H929 cells [4]): induce G0/G1 cell cycle arrest |
| CC(C)C[C@H](NC(=O)[C@H](Cc1ccccc1)NC(=O)c1cnccn1)B(O)O [bortezomib, reference compound] |  |  |  |  | effect on IKZF1 degradation induced by compound 10a (IKZF1; [7]): can block the degradation; effect on IKZF3 degradation induced by compound 10a (IKZF3; [7]): can block the degradation |

Further lines, with some results ahead:

| IC50 (TNF-α; [5]) [µM] | IC50 (NCI-H929 cells [1]) [µM] | Compound | viability at 72 h, 20 µM (PBMC toxicity by CCK8) [%] | IC50 (U2932 cells) [µM] | other results |
| --- | --- | --- | --- | --- | --- |
| > 50 | 32.2 ± 1.42 | O=C1CCC(N2C(=O)Cc3ccccc3C2=O)C(=O)N1 (stereo not shown) [Compound 3a, 2-(2,6-dioxopiperidin-3-yl)isoquinoline-1,3(2H,4H)-dione] | 99 | > 50 |  |
| > 50 | > 50 | COc1ccc2c(c1)C(=O)N(C1CCC(=O)NC1=O)C(=O)C2(C)C (stereo not shown) [Compound 3c, 2-(2,6-Dioxopiperidin-3-yl)-7-methoxy-4,4-dimethylisoquinoline-1,3(2H,4H)-dione] | 100 | > 50 |  |
| 38.5 ± 1.38 | 18.7 ± 0.83 | Nc1ccc2c(c1)CC(=O)N(C1CCC(=O)NC1=O)C2=O (stereo not shown) [Compound 10c, 6-Amino-2–(2,6-dioxopiperidin-3-yl)isoquinoline-1,3(2H,4H)-dione] | 100 | 26.3 ± 0.76 |  |
| > 50 | > 50 | Nc1cccc2c1CC(=O)N(C1CCC(=O)NC1=O)C2=O (stereo not shown) [Compound 10d, 5-Amino-2–(2,6-dioxopiperidin-3-yl)isoquinoline-1,3(2H,4H)-dione] | 99 | > 50 |  |
| > 50 | > 50 | Nc1cccc2c1C(=O)N(C1CCC(=O)NC1=O)C(=O)C21CC1 (stereo not shown) [Compound 12b, 8′-Amino-2′-(2,6-dioxopiperidin-3-yl)-1′H-spiro[cyclopropane-1,4′-isoquinoline]-1′,3′(2′H)-dione] | 100 | > 50 |  |
